Test system: kk mice
Assay: Hypoglycemic action (blood sugar level decreasing ratio after 4 days of oral administration)
Format: in vivo
Conditions: 30 mg/day, daily for 4 days, in 0.5% methyl cellulose, six male kk mice per group, blood sampled before and on fifth day, *** = p<0.001
Method: Male kk mice of 4 to 5 w were purchased from CLEA Japan Inc. These animals were separately reared with a high calorie food (CMF, manufactured by Oriental Yeast), and the animals of which the body weight was more than 40 g were used in the test.
Measurement of the blood sugar level was carried out by collecting a 10 μl portion of blood from a tail vein, removing protein from the collected sample by its treatment with 100 μl of 0.33N perchloric acid, and after centrifugation, measuring glucose in the resulting supernatant by the glucose oxidase method. Six animals having a blood sugar level of more than 200 mg/dl were used as one group in the test.
Each drug was suspended in 0.5% methyl cellulose and orally administered daily for 4 days. Blood samples were collected before and on the fifth day of the drug administration from the tail vein. Blood sugar level was determined with the aforementioned method.
The hypoglycemic activity was expressed as the blood sugar level decreasing ratio to the pre-administration level and statistically evaluated as a significant threshold value of p=0.05.

O=c1[nH]c(=O)n(Cc2ccc(Oc3cccc(Oc4ccc(Cn5oc(=O)[nH]c5=O)cc4)c3)cc2)o1 [Example 6, 1,3-Bis[4-[(3,5-dioxo-1,2,4-oxadiazolidin-2-yl)methyl]phenoxy]benzene]
blood sugar level decreasing ratio to the pre-administration level: 53%

From patent US5643931A, “Bisoxadiazolidine derivative” (Yamanouchi Pharmaceutical Co., Ltd., priority 1993, dated 1997)
